Source: US20240376114A1, “NUCLEAR TRANSPORT MODULATORS AND USES THEREOF” (Karyopharm Therapeutics Inc., priority 2011, published 2024)
Like-named read-outs stand apart in the source and are kept apart here.

Experiments:
[1] = CellTiter 96 AQueous One Solution (MTS) cell proliferation assay; format: cell-based; conditions: human, MM.1S multiple myeloma cells; MM.1S cells, 72 h treatment; read-out: Cytotoxicity [EC50]
Source text: (§1) The CellTiter 96® AQueous One Solution cell proliferation assay (Promega) was used on MM.1S multiple myeloma cell line to study the cytotoxic and cytostatic properties of the compounds. The assay is based on the cleavage of the tetrazolium salt, MTS, in the presence of an electron-coupling reagent PES (phenazine ethosulfate). The MTS tetrazolium compound is bioreduced by cells into a colored formazan product that is soluble in tissue culture medium. This conversion is presumably accomplished by NADPH or NADH produced by dehydrogenase enzymes in metabolically active cells. Assays are performed by adding a small amount of the CellTiter 96® AQueous One solution reagent directly to culture wells, incubating for 1-4 hours and then recording the absorbance at 490 nm with a 96-well plate reader.
(§2) The cells were seeded at 5×10^3 to 1.5×10^4 cells (depending on cell type) in each well of a 96-well plate in 100 μL of fresh culture medium and adherent cells were allowed to attach overnight. The stock solutions of the compounds were diluted in cell culture medium to obtain eight concentrations of each drug, ranging from 1 nM to 30 μM and DMSO at less than 1% v/v was used as a negative control. The resulting drug solutions were transferred onto the cells. After 72 h of treatment, 20 μl of CellTiter 96® AQueous reagent was added into each well of the 96-well assay plates and the plate was incubated at 37° C. for 1-4 hours in a humidified, 5% CO2 atmosphere. Then the absorbance of each well was recorded at 490 nm using a 96-well plate reader. In most cases, the assay was performed in triplicate and the results were presented as half maximal inhibitory concentration (IC50). Optical density versus compound concentration was plotted and analyzed using non-linear regression equations (IDBS XLfit) and the IC50 for each compound was calculated.

[2] = Pharmacokinetic (PK) assay, plasma AUC; format: in vivo; conditions: mouse, PO
Procedure: Pharmacokinetics (PK) play an increasing role in drug discovery and development. Pharmacokinetics is the quantitative study of the time course of drug absorption, distribution, metabolism and/or excretion. When a drug is administered, it distributes rapidly from its administration site into the systemic blood circulation. One measure of the extent of a therapeutic agent's distribution is the area under the plasma concentration-time curve (AUC), calculated to the last measured concentration (AUCt) and extrapolated to infinity (AUCinf). AUC is thus a useful metric to quantitate drug exposure. AUC. Blood was collected from mice (N=3) to contribute to the total of 10 time points (pre-dose, 5 min, 15 min, 30 min, 1 hour, 2 hours, 4 hours, 8 hours, 12 hours and 24 hours post dose). Mice were bled on a rotating basis, each mouse contributing 3 time points to the blood collection. At the designated time points, animals were anaesthetized under isoflurane, and approximately 110 μL of blood per time point was collected via retro-orbital puncture into pre-cooled K2EDTA (anti-coagulant) tubes. Blood samples were put on wet ice and centrifuged (2000 g, 5 min at 4° C.) to obtain plasma within 30 minutes of sample collection. All samples were stored frozen at approximately −80° C. until analysis. Prior to analysis, samples were mixed with internal standard (dexamethasone) in acetonitrile, vortexed, centrifuged, and supernatant was injected for analysis. Concentration of compounds in plasma was determined using LC-MS-MS instrumentation (API 4000, Triple Quadruple with electrospray ionization; Acuity Ultra Performance Liquid Chromatography column C18, with MeOH and formic acid as organic solvents). AUC values were calculated using WinNonlin Professional 6.2 software package, non-compartmental pharmacokinetic model NCA200.

[3] = Brain to plasma (B:P) ratio determination; format: in vivo; conditions: brain and plasma; mouse, PO at 10 mg/kg, 2 hours post-dose
Source text: The brain to plasma (B:P) ratio is one method of quantifying the relative distribution of a therapeutic agent in brain tissue to that in circulation and, as such, provides one indication of the brain penetration of a given therapeutic agent. A high brain to plasma ratio is preferred when targeting diseases localized in the central nervous system (CNS), including the brain and the cerebrospinal fluid. However, a lower brain to plasma ratio is generally preferable for non-CNS therapeutic agents to minimize brain penetration and avoid potential side effects caused by unwanted accumulation of the therapeutic agents in the brain and CNS tissue.
Brain to Plasma (B:P) Ratio. […] Following collection, brain tissue was rinsed with cold saline, dried on filter paper, weighed and snap-frozen by placing on dry ice. All samples were stored frozen at approximately −80° C. until analysis. […] Plasma samples were treated with the identical method (except homogenization step) and the concentration of compound in each matrix was calculated based on generated standard curves.

[4] = test system: MM.1S multiple myeloma cell line; experiment: CellTiter 96 AQueous One Solution (MTS) cell proliferation assay; format: cell-based
Source text: as §1, §2

[5] = 5 mg/kg, 5 mpk, read-out: AUCInf hr * ng/mL (mouse, PO), tested at 5 mpk
[6] = 10 mg/kg, 10 mpk, read-out: AUCInf hr * ng/mL (mouse, PO, 10 mpk)
[7] = MM.1S cells, 72 h treatment, read-out: Cytotoxicity [EC50]

| Compound | EC50 at 72 h [1] | further results |
| --- | --- | --- |
| CC1(O)CN(C(=O)/C=C\n2cnc(-c3cc(C(F)(F)F)cc(C(F)(F)F)c3)n2)C1 [Example 8, (Z)-3-(3-(3,5-bis(trifluoromethyl)phenyl)-1H-1,2,4-triazol-1-yl)-1-(3-hydroxy-3-methylazetidin-1-yl)prop-2-en-1-one] | < 1000 nM | AUC(0-inf) [2, 5]: 9050 ng·h/mL; Kp at 2 h [3]: 3.16 |
| O=C(/C=C\n1cnc(-c2cc(C(F)(F)F)cc(C(F)(F)F)c2)n1)NNc1cnccn1 [Compound 70] | < 1000 nM | AUC(0-inf) [2, 6]: 10100 ng·h/mL |
| NCC1(F)CN(C(=O)/C=C\n2cnc(-c3cc(C(F)(F)F)cc(C(F)(F)F)c3)n2)C1 [Compound 60, (Z)-1-(3-(aminomethyl)-3-fluoroazetidin-1-yl)-3-(3-(3,5-bis(trifluoromethyl)phenyl)-1H-1,2,4-triazol-1-yl)prop-2-en-1-one] | < 1000 nM | AUC(0-inf) [2, 5]: 1240 ng·h/mL; Kp at 2 h [3]: 13.3 |
| O=C(/C=C\n1cnc(-c2cc(C(F)(F)F)cc(C(F)(F)F)c2)n1)NNc1ccccn1 [Compound 71] | < 1000 nM | AUC(0-inf) [2, 6]: 10800 ng·h/mL; Kp at 2 h [3]: 1.8 |
| O=C(/C=C\n1cnc(-c2cc(C(F)(F)F)cc(C(F)(F)F)c2)n1)N1CCC1 [Compound 23, (Z)-1-(azetidin-1-yl)-3-(3-(3,5-bis (trifluoromethyl)phenyl)-1H-1,2,4-triazol-1-yl) prop-2-en-1-one] | < 1000 nM | AUC(0-inf) [2, 6]: 521 ng·h/mL |
| O=C(/C=C\n1cnc(-c2cc(F)cc(C(F)(F)F)c2)n1)N1CC(F)(F)C1 [Example 2, (Z)-1-(3,3-difluoroazetidin-1-yl)-3-(3-(3-fluoro-5-(trifluoromethyl)phenyl)-1H-1,2,4-triazol-1-yl)prop-2-en-1-one] | < 1000 nM | AUC(0-inf) [2, 6]: 396 ng·h/mL |
| (E)-3-(6-(3,5-bis(trifluoromethyl)phenyl)pyridin-2-yl)-1-(3,3-difluoroazetidin-1-yl)prop-2-en-1-one [Compound 15] | – | EC50 [4]: > 10000 nM |
| CN(C)CC1CN(C(=O)/C=C\n2cnc(-c3cc(C(F)(F)F)cc(C(F)(F)F)c3)n2)C1 [Compound 25, (Z)-3-(3-(3,5-bis(trifluoromethyl)phenyl)-1H-1,2,4-triazol-1-yl)-1-(3-((dimethylamino)methyl)azetidin-1-yl)prop-2-en-1-one] | < 1000 nM | AUC(0-inf) [2, 6]: 2640 ng·h/mL |
| O=C(/C=C\n1cnc(-c2cc(C(F)(F)F)cc(C(F)(F)F)c2)n1)NCc1cnco1 [Example 11, (Z)-3-(3-(3,5-bis(trifluoromethyl)phenyl)-1H-1,2,4-triazol-1-yl)-N-(oxazol-5-ylmethyl)acrylamide] | < 1000 nM | AUC(0-inf) [2, 5]: 3080 ng·h/mL |
| Cc1ncc(CN(C)C(=O)/C=C\n2cnc(-c3cc(C(F)(F)F)cc(C(F)(F)F)c3)n2)cn1 [Compound 18, (Z)-3-(3-(3,5-bis(trifluoromethyl)phenyl)-1H-1,2,4-triazol-1-yl)-N-methyl-N-((2-methylpyrimidin-5-yl)methyl)acrylamide] | 1000 to 10000 nM | – |
| [2H]/C(=C/n1nc(-c2cc(C(F)(F)F)cc(C(F)(F)F)c2)nc1[2H])C(=O)N1CC(F)(F)C1 [Compound 40, D2-(Z)-3-(3-(3,5-bis(trifluoromethyl)phenyl)-1H-1,2,4-triazol-1-yl)-1-(3,3-difluoroazetidin-1-yl)prop-2-en-1-one] | < 1000 nM | – |
| O=C(/C=C\n1cnc(-c2cc(C(F)(F)F)cc(C(F)(F)F)c2)n1)N1CCC(O)CC1 [Compound 66, (Z)-3-(3-(3,5-bis(trifluoromethyl)phenyl)-1H-1,2,4-triazol-1-yl)-1-(4-hydroxypiperidin-1-yl)prop-2-en-1-one] | < 1000 nM | – |
| (Z)-3-(3-(3,5-bis(trifluoromethyl)phenyl)-1H-1,2,4-triazole-1-yl)-N-(1-(5-methylpyrimidine-2-yl)ethyl)acrylamide [Compound 21] | – | EC50 [4, 7]: 1000 to 10000 nM |
| O=C(/C=C\n1cnc(-c2cc(C(F)(F)F)cc(C(F)(F)F)c2)n1)N1CC(F)(C(=O)O)C1 [Compound 62, (Z)-1-(3-(3-(3,5-bis(trifluoromethyl)phenyl)-1H-1,2,4-triazol-1-yl)acryloyl)-3-fluoroazetidine-3-carboxylic acid] | 1000 to 10000 nM | – |
| O=C(/C=C\n1cnc(-c2cc(C(F)(F)F)cc(C(F)(F)F)c2)n1)N1CC(O)(C(F)(F)F)C1 [Compound 51, (Z)-3-(3-(3,5-bis(trifluoromethyl)phenyl)-1H-1,2,4-triazol-1-yl)-1-(3-hydroxy-3-(trifluoromethyl)azetidin-1-yl)prop-2-en-1-one] | < 1000 nM | – |
| O=C(/C=C\n1cnc(-c2cc(C(F)(F)F)cc(C(F)(F)F)c2)n1)N1CC(F)C1 [Example 7, (Z)-3-(3-(3,5-bis(trifluoromethyl)phenyl)-1H-1,2,4-triazol-1-yl)-1-(3-fluoroazetidin-1-yl)prop-2-en-1-one] | < 1000 nM | AUC(0-inf) [2, 6]: 2510 ng·h/mL |
| (Z)-3-(2-(3,5-bis(trifluoromethyl)phenyl)-1H-pyrrol-1-yl)-1-(3,3-difluoroazetidin-1-yl)prop-2-en-1-one [Compound 65] | – | EC50 [4, 7]: > 10000 nM |
| O=C(/C=C\n1cnc(-c2cc(C(F)(F)F)cc(C(F)(F)F)c2)n1)NCC1CCCNC1 (stereo not drawn) [Compound 19, (Z)-3-(3-(3,5-bis(trifluoromethyl)phenyl)-1H-1,2,4-triazol-1-yl)-N-(piperidin-3-ylmethyl)acrylamide] | 1000 to 10000 nM | – |
| CN(Cc1cncnc1)C(=O)/C=C\n1cnc(-c2cc(C(F)(F)F)cc(C(F)(F)F)c2)n1 [Compound 17, (Z)-3-(3-(3,5-bis(trifluoromethyl)phenyl)-1H-1,2,4-triazol-1-yl)-N-methyl-N-(pyrimidin-5-ylmethyl)acrylamide] | 1000 to 10000 nM | – |
| O=C(/C=C\n1cnc(-c2cc(C(F)(F)F)cc(C(F)(F)F)c2)n1)N1CC2(CNC2)C1 [Compound 52, (Z)-3-(3-(3,5-bis(trifluoromethyl)phenyl)-1H-1,2,4-triazol-1-yl)-1-(2,6-diazaspiro[3.3]heptan-2-yl)prop-2-en-1-one 2,2,2-trifluoroacetate] | < 1000 nM | – |
| O=C(/C=C\n1cnc(-c2cc(C(F)(F)F)nc(C(F)(F)F)c2)n1)N1CC(F)(F)C1 [Example 9, (Z)-3-(3-(2,6-bis(trifluoromethyl)pyridin-4-yl)-1H-1,2,4-triazol-1-yl)-1-(3,3-difluoroazetidin-1-yl)prop-2-en-1-one] | < 1000 nM | – |
